US20160374944A1, “COMPOSITIONS AND METHODS FOR TREATING AND PREVENTING CANCER BY TARGETING AND INHIBITING CANCER STEM CELLS” (priority 2011, published 2016)

Experiments:
Breast CSCs = test: cell viability by XTT assay; assay type: cell-based; settings: 3 days
Method: Breast CSCs were seeded in 96-well plate and treated with sulforaphane, diallyl trisulphide, resveratrol and curcumin for 3 days. At the end of incubation period, CSCs were harvested and cell viability was measured by XTT assay.
Breast CSCs were seeded in 96-well plate and treated with rottlerin, EGCG, embelin, and honokiol for 3 days. At the end of incubation period, breast CSCs were harvested and cell viability was measured by XTT assay.
(A-D) Breast CSCs were treated with PITC (0-20 μM), BSC, (0-20 μM), sulforaphane (0-20 μM) and honokiol (0-10 μM) for 3 days, and cell viability was measured by XTT assay.
Breast CSCs were treated with rottlerin (0-1 μM) for 3 days, and cell viability was measured by XTT assay.
Breast CSCs were seeded in 96-well plate and treated with sulforaphane, diallyl trisulphide, resveratrol, and curcumin for 3 days and cell viability was measured by XTT assay. The results of those studies are illustrated in FIG. 29.
Breast CSCs were seeded in 96-well plate and treated with Rottlerin, EGCG, embelin, and honokiol for 3 days and cell viability was measured by XTT assay. The results of those studies are illustrated in FIG. 30.

Prostate CSCs [1] = test: cell viability by XTT assay; assay type: cell-based, human; settings: 3 days; PITC 0-20 μM, BSC 0-20 μM
Method: (§1) (A-B) Pancreatic CSCs were treated with BSC (0-20 μM) and honokiol (0-10 μM); (C-D) Prostate CSCs were treated with PITC (0-20 μM) and BSC (0-20 μM) for 3 days. Cell viability was measured by XTT assay.

Pancreatic CSCs [2] = test: cell viability by XTT assay; assay type: cell-based, human; settings: 3 days; BSC 0-20 μM, honokiol 0-10 μM
Method: as §1

Brain CSCs [3] = test: cell viability, trypan blue, Vi-CELL analyzer; assay type: cell-based; settings: 3 days
Method: Brain CSCs were treated with resveratrol (0-20 μM), curcumin (0-20 μM), honokiol (0-20 μM) and diallyl trisulphide (0-10 μM) for 3 days, and cell viability was measured by staining with trypan blue using Vi-CELL analyzer (Beckman Counter).
Brain CSCs were treated with sulforaphane (0-20 μM), rottlerin (0-1 μM), EGCG (0-40 μM) and embelin (0-5 μM) for 48 h, and cell viability was measured by staining with trypan blue using Vi-CELL analyzer (Beckman Counter).
Brain CSCs were treated with resveratrol (0-20 μM), curcumin (0-20 μM) honokiol (0-20 μM), and diallyl trisulphide (0-10 μM) for 3 days and cell viability was measured by staining with trypan blue using Vi-CELL analyzer. The results of those studies are illustrated in FIG. 23.
Brain CSCs were treated with sulforaphane (0-20 μM), rottlerin (0-1 μM), EGCG (0-40 μM), and embelin (0-5 μM) for 48 hours and cell viability was measured by staining with trypan blue using Vi-CELL analyzer. The results of those studies are illustrated in FIG. 24.

Prostate CSCs [4] = test: cell viability, trypan blue, Vi-CELL analyzer; assay type: cell-based, human; settings: 3 days
Method: Prostate CSCs were treated with resveratrol (0-20 μM), curcumin (0-20 μM), honokiol (0-20 μM) and diallyl trisulphide (0-10 μM) for 3 days, and cell viability was measured by staining with trypan blue using Vi-CELL analyzer (Beckman Counter).
Prostate CSCs were treated with sulforaphane (0-20 μM), rottlerin (0-5 μM), EGCG (0-40 μM) and embelin (0-1 μM) for 3 days, and cell viability was measured by staining with trypan blue using Vi-CELL analyzer (Beckman Counter).
Prostate CSCs were treated with resveratrol (0-20 μM), curcumin (0-20 μM), honokiol (0-20 μM), and diallyl trisulphide (0-10 μM) for 3 days and cell viability was measured by staining with trypan blue using Vi-CELL analyzer. The results of those studies are illustrated in FIG. 25.
Prostate CSCs were treated with sulforaphane (0-20 μM), rottlerin (0-5 μM), EGCG (0-40 μM), and embelin (0-1 μM) for 3 days and cell viability was measured by staining with trypan blue using Vi-CELL analyzer. The results of those studies are illustrated in FIG. 26.

Brain CSCs [5] = test: cell viability by XTT assay; assay type: cell-based; settings: 3 days; 0-20 μM
Method: (A-B) Brain CSCs were treated with sulforaphane (0-20 μM), and honokiol (0-20 μM) for 3 days, and cell viability was measured by XTT assay.

Pancreatic CSCs [6] = test: cell viability, trypan blue, Vi-CELL analyzer; assay type: cell-based, human
Method: Pancreatic CSCs were treated with resveratrol (0-20 μM), curcumin (0-20 μM), honokiol (0-20 μM) and diallyl trisulphide (0-20 μM) for 3 days, and cell viability was measured by staining with trypan blue using Vi-CELL analyzer (Beckman Counter).
Pancreatic CSCs were treated with sulforaphane (0-20 μM), rottlerin (0-2 μM), EGCG (0-60 μM) and embelin (0-5 μM) for 3 days, and cell viability was measured by staining with trypan blue using Vi-CELL analyzer (Beckman Counter).
(§2) (A) Pancreatic CSCs were treated with SAHA (3 and 5 μM) and 5-Aza-dc (2 and 4 μM) and cell viability was measured at 48 h by staining with trypan blue using Vi-CELL analyzer (Beckman Counter). (B) Pancreatic CSCs were untreated (a) or treated with SAHA (b) or 5-Aza-dC (c) for 48 h, and apoptosis was measured by staining with annexin-PI using Accuri Flow Cytometer. (C) Caspase-3/7 activity was measured in pancreatic CSCs treated with SAHA (0.5 and 2 μM) or 5-Aza-dC (1 and 3 μM) for 25 h.
Pancreatic CSCs were treated with resveratrol (0-20 μM), curcumin (0-20 μM), honokiol (0-20 μM), and diallyl trisulphide (0-20 μM) for 3 days and cell viability was measured by staining with trypan blue using Vi-CELL analyzer. The results of those studies are illustrated in FIG. 27.
Pancreatic CSCs were treated with sulforaphane (0-20 μM), rottlerin (0-2 μM), EGCG (0-60 μM), and embelin (0-5 μM) for 3 days and cell viability was measured by staining with trypan blue using Vi-CELL analyzer. The results of those studies are illustrated in FIG. 28.
Pancreatic CSCs were treated with SAHA […] Vorinostat (3 and 5 μM) and 5-Aza-2′-deoxycytidine (5-Aza-dC, 2 and 4 μM) and cell viability was measured at 48 hours by staining with trypan blue using Vi-CELL analyzer. The results of those studies are illustrated in FIG. 31A.

pancreatic cancer = settings: background statement; cited from earlier work
Pancreatic CSCs [7] = test: apoptosis; assay type: cell-based, human; settings: 48 h, annexin-PI, flow cytometer
Method: (A and B) Induction of apoptosis and activation of caspase-3/-7. Pancreatic CSCs were treated with rottlerin (0-2 μM) for 48 h, and apoptosis and caspase-3/-7 activity were measured by […] and colorometric assay, respectively. […] (C) Pancreatic CSCs were treated with rottlerin (0-1 μM) for 48 h, and the expression of Bcl-2, XIAP and Survivin was measured by qRT-PCR and normalized to GAPDH.
as §2
(A) Regulation of caspase-3/7 activity by EGCG. CSCs were treated with EGCG (0-60 μM) for 24 h, and caspase-3/7 activity was measured as per manufacturer's instructions. […] (B) Regulation of apoptosis by EGCG. CSCs were treated with EGCG (0-60 μM) for 48 h, and apoptosis was measured by TUNEL assay. […] (C) Regulation of apoptosis-related proteins. Pancreatic CSCs were treated with EGCG (0-60 μM) for 36 h. Real time PCR (q-RT-PCR) was performed to examine the expression of Bcl-2, survivin, XIAP, and GAPDH.
FIG. 42A and FIG. 42B show graphs showing quercetin synergizes with EGCG to inhibit self-renewal capacity, invasion, migration, and TCF/LEF and Gli transcriptional activities in pancreatic CSCs. (A) Effects of EGCG and quercetin on spheroid and colony formation. Upper Panel, uercetin synergizes with EGCG to inhibit spheroid's cell viability. CSCs were seeded in suspension and treated with EGCG (0-60 μM) with or without quercetin (20 μM) for 7 days. At the end of incubation period, all the spheroids were collected and resuspended. Cell viability was measured by trypan blue assay. […] Lower panel, uercetin synergizes with EGCG to inhibit colony formation. Pancreatic CSCs were seeded in soft agar and treated with various doses of EGCG (0-60 μM) with or without quercetin (20 μM) and incubated at […] for 21 days. At the end of incubation period, colonies were counted. […] (B) Effects of EGCG and quercetin on invasion and migration. Upper panel, Matrigel invasion assay. CSCs were plated onto the Matrigel-coated membrane in the top chamber of the transwell and treated with EGCG (0-60 μM) with or without quercetin (20 μM) for 48 hrs. Cells invaded to the lower chambered were fixed with methanol, stained with crystal violet and counted. […] Lower panel, Transwell migration assay. Pancreatic CSCs were plated in the top chamber of the transwell and treated with EGCG (0-60 μM) with or without quercetin (20 μM) for 48 hrs. Cells migrated to the lower chambered were fixed with methanol, stained with crystal violet and counted. […] (C) Quercetin synergizes with EGCG to induce apoptosis. CSCs were seeded in suspension and treated with EGCG (0-60 μM) with or without quercetin (20 μM) for 7 days. At the end of incubation period, all the spheroids were collected. Apoptosis was measured by TUNEL assay. […] (D) Effects of EGCG and quercetin on TCF/LEF and Gli transcriptional activities. Pancreatic CSCs were transduced with either lentivirus encoding TCF/LEF responsive GFP and luciferase genes or Gli-responsive GFP and luciferase genes. Transduced CSCs were treated with EGCG (40 μM) with or without quercetin (20 μM) for 48 hrs and the luciferase activity was measured.
Pancreatic CSCs were (a) untreated, (b) treated with SAHA, or (c) treated with 5-Aza-dC for 48 hours and apoptosis was measured by staining with annexin-PI using Accuri Flow Cytometer. The results of those studies are illustrated in FIG. 31B.

[8] = 48 h, SAHA 3 and 5 μM, 5-Aza-dc 2 and 4 μM

Compound | cell viability (Breast CSCs) | cell viability (Brain CSCs [3]) | cell viability (Prostate CSCs [4]) | cell viability (Pancreatic CSCs [6]; 3 days) | further results
N#C[Se]Cc1ccccc1 [BSC, benzyl selenocyanate] | inhibit cell viability |  |  |  | cell viability (Prostate CSCs [1]): inhibit cell viability; cell viability (Pancreatic CSCs [2]): inhibit cell viability
C=CCc1ccc(O)c(-c2ccc(O)c(CC=C)c2)c1 [honokiol] | inhibit cell viability | inhibit cell viability | inhibit cell viability | inhibit cell viability | cell viability (Brain CSCs [5]): inhibit cell viability; cell viability (Pancreatic CSCs [2]): inhibit cell viability
C=CCSSSCC=C [diallyl trisulphide] | inhibit cell viability | inhibit cell viability | inhibit cell viability | inhibit cell viability | 
Nc1ccn([C@@H]2O[C@H](CO)[C@@H](O)C2(F)F)c(=O)n1 [Gemcitabine] |  |  |  |  | pancreatic cancer patients in whom the drug is effective (pancreatic cancer): 30%; survival of pancreatic cancer patients (pancreatic cancer): less than 5 years
COc1cc(/C=C/C(=O)CC(=O)/C=C/c2ccc(O)c(OC)c2)ccc1O [curcumin] | inhibit cell viability | inhibit cell viability | inhibit cell viability | inhibit cell viability | 
Nc1ncn([C@H]2C[C@H](O)[C@@H](CO)O2)c(=O)n1 [5-Aza-dC, 5-Aza-2′-deoxycytidine, reference compound] |  |  |  |  | apoptosis (Pancreatic CSCs [7]): promote apoptosis; cell viability (Pancreatic CSCs [6]; [8]): inhibit cell viability
O=C(CCCCCCC(=O)Nc1ccccc1)NO [SAHA, reference compound] |  |  |  |  | apoptosis (Pancreatic CSCs [7]): promote apoptosis; cell viability (Pancreatic CSCs [6]; [8]): inhibit cell viability
S=C=Nc1ccccc1 [PITC, phenyl isothiocyanate] | inhibit cell viability |  |  |  | cell viability (Prostate CSCs [1]): inhibit cell viability
Oc1ccc(C=Cc2cc(O)cc(O)c2)cc1 [resveratrol] | inhibit cell viability | inhibit cell viability | inhibit cell viability | inhibit cell viability | 
